Here are results for 1 compound from doi:10.1101/2024.10.12.618019v1 (biorxiv, 2024).

Where only a bound is given, the exact number is not on record here.

Among the targets are 5HT1D (Homo sapiens, UniProt P28221); D2 (Homo sapiens, UniProt P14416); H1 (Homo sapiens, UniProt P35367); 5HT7A (Homo sapiens, UniProt P34969); D5 (Homo sapiens, UniProt P21918); D3 (Homo sapiens, UniProt P35462); NOP (Homo sapiens, UniProt P41146); 5HT5A (Homo sapiens, UniProt P47898); DAT (Homo sapiens, UniProt Q01959); SERT (Homo sapiens, UniProt P31645); 5HT1E (Homo sapiens, UniProt P28566); D1 (Homo sapiens, UniProt P21728); 5HT2B (Homo sapiens, UniProt P41595); 5HT1B (Homo sapiens, UniProt P28222); H4 (Homo sapiens, UniProt Q9H3N8); 5HT6 (Homo sapiens, UniProt P50406); 5HT2A (Homo sapiens, UniProt P28223).

Experiment in all cases: biochemical
The target of the next experiment is T1, 5HT3 (Homo sapiens, UniProt P46098).
T1 sequence (P46098 1-478): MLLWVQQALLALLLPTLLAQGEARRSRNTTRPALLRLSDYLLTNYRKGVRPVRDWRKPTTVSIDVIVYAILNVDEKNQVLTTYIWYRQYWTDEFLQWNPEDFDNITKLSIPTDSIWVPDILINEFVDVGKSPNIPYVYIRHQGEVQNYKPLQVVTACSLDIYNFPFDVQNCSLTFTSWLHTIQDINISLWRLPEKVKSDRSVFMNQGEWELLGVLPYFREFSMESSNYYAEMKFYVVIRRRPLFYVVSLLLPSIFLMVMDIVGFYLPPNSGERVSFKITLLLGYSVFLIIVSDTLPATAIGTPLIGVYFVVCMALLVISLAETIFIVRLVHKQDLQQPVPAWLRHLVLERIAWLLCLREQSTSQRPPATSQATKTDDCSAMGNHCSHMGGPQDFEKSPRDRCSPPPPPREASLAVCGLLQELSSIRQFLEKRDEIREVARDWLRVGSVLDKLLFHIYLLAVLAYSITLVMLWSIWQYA

The target in the next experiment is T2, 5HT1A (Homo sapiens, UniProt P08908).
T2 sequence (P08908 1-422): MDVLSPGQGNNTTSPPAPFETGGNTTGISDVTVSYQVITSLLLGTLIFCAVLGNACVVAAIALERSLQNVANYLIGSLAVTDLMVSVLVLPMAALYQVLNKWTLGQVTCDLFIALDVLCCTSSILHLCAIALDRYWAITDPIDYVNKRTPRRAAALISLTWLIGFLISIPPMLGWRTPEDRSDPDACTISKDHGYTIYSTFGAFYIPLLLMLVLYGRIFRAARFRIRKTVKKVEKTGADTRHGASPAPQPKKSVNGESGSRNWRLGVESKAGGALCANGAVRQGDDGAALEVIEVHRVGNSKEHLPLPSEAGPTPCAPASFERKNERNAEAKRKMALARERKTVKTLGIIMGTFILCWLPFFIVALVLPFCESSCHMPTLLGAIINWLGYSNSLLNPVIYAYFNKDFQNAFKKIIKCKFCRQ

In another experiment the target is T3, D4 (Homo sapiens, UniProt P21917).
T3 sequence (P21917 1-419): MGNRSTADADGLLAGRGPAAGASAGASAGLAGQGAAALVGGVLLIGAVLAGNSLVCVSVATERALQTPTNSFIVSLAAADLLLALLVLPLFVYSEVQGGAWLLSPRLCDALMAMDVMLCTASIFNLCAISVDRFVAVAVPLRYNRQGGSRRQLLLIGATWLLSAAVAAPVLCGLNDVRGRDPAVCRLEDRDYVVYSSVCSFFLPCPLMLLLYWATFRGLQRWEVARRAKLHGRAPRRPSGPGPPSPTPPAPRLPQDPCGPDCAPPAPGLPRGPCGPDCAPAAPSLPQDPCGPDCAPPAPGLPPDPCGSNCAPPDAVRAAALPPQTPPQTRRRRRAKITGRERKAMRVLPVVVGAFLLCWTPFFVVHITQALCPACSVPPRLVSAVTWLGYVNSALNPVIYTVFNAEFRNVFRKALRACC

In a further experiment the target is T4, 5HT2C (Homo sapiens, UniProt P28335).
T4 sequence (P28335 1-458): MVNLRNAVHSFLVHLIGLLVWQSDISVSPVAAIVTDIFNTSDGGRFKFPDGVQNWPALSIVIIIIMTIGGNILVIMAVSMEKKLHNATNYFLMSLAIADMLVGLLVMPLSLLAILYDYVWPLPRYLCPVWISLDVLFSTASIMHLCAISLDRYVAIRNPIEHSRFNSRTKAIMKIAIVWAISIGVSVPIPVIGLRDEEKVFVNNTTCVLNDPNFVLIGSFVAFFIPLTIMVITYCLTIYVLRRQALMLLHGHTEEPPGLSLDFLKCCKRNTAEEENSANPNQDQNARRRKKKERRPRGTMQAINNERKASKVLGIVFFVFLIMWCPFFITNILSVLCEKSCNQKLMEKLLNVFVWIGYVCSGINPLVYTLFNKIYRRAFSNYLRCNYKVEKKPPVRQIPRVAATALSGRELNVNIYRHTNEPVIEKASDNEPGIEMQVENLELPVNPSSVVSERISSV

Sequence of 5HT6 (P50406 whole entry): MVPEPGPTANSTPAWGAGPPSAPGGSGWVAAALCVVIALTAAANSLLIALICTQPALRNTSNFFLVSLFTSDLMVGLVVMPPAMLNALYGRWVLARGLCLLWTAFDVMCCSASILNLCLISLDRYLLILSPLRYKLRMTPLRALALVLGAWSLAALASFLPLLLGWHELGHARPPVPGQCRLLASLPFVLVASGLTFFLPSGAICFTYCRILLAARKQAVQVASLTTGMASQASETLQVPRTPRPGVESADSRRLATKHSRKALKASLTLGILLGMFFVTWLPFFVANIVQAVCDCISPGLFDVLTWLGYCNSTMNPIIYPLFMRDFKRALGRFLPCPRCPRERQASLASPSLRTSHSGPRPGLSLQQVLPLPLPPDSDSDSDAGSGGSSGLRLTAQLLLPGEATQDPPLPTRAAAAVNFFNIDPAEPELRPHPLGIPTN
Sequence of 5HT7A (P34969 whole entry): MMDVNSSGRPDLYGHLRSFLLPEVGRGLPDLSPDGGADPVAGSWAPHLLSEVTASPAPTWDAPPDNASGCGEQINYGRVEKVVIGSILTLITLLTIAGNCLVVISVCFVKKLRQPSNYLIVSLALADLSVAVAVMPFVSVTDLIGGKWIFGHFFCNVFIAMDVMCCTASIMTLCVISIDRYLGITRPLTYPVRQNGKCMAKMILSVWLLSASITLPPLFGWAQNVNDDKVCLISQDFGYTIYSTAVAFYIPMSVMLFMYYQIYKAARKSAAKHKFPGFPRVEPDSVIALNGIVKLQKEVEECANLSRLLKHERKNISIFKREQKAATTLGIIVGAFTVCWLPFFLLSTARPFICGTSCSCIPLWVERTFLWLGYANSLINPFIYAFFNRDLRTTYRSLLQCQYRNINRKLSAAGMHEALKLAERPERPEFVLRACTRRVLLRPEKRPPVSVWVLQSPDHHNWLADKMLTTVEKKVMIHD
Sequence of 5HT5A (P47898 whole entry): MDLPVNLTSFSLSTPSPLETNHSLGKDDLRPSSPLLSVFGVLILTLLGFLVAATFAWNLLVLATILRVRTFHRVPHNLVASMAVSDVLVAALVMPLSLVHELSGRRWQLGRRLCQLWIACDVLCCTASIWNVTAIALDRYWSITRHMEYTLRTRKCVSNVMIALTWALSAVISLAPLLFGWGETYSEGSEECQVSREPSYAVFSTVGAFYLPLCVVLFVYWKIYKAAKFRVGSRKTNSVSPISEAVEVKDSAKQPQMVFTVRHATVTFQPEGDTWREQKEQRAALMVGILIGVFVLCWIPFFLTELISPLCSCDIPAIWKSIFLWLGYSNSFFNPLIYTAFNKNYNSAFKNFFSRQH
Sequence of 5HT2B (P41595 whole entry): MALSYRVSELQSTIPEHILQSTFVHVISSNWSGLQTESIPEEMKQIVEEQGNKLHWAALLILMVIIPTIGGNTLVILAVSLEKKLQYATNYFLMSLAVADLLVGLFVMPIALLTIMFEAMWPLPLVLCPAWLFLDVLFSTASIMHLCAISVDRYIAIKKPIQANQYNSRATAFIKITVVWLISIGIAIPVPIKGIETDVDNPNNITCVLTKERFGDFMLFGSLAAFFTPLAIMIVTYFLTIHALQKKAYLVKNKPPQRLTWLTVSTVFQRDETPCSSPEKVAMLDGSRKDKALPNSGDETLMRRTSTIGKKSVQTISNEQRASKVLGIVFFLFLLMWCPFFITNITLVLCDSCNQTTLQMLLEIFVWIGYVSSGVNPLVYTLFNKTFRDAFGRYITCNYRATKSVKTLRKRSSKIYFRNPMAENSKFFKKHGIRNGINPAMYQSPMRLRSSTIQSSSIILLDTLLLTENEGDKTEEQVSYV
Sequence of D5 (P21918 whole entry): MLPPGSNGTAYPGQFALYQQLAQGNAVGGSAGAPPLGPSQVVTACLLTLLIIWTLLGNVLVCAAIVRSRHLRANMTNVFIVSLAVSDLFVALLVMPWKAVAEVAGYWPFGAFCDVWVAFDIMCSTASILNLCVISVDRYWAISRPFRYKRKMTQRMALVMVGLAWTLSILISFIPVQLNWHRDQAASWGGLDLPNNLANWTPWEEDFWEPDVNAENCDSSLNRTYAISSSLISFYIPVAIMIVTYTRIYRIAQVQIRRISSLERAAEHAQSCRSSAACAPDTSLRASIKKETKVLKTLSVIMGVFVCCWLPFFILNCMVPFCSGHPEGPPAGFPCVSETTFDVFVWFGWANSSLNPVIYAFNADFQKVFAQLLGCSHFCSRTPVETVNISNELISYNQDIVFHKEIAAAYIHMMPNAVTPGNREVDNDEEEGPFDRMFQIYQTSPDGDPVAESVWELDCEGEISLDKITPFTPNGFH
Sequence of H4 (Q9H3N8 whole entry): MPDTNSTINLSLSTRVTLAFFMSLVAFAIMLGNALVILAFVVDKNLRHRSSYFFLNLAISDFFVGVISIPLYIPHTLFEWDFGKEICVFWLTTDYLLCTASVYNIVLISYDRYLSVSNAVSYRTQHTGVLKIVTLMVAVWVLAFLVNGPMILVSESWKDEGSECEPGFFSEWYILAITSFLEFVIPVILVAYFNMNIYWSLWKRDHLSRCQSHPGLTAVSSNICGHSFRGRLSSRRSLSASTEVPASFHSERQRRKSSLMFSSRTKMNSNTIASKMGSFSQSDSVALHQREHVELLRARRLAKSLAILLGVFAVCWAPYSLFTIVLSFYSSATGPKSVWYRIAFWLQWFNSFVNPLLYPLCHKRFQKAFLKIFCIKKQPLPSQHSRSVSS
Sequence of D2 (P14416 whole entry): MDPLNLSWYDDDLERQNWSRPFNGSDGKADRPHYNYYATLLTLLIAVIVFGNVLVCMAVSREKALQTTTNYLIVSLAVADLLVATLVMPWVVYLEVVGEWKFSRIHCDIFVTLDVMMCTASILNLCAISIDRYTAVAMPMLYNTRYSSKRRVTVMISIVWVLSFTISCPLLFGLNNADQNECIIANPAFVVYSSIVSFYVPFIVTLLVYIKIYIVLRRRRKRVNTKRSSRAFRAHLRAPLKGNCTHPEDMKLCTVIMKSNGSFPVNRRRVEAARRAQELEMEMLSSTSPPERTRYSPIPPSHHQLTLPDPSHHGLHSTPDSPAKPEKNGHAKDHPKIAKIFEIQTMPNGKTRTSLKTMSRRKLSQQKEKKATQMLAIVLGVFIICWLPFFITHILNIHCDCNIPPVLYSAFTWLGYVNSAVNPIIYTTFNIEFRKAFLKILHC
Sequence of H1 (P35367 whole entry): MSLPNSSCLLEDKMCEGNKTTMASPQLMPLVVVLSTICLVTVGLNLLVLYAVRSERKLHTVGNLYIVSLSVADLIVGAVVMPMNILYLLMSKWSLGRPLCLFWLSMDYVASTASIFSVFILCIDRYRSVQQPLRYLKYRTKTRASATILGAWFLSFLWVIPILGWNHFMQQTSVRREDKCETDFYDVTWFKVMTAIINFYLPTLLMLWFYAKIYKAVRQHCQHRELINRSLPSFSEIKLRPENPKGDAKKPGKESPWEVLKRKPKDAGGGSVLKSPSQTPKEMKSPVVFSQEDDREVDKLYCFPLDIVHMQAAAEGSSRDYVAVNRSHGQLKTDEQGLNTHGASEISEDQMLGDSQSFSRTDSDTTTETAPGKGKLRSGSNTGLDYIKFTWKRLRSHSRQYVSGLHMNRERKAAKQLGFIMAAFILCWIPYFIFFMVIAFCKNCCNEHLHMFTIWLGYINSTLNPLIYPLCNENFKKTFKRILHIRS
Sequence of NOP (P41146 whole entry): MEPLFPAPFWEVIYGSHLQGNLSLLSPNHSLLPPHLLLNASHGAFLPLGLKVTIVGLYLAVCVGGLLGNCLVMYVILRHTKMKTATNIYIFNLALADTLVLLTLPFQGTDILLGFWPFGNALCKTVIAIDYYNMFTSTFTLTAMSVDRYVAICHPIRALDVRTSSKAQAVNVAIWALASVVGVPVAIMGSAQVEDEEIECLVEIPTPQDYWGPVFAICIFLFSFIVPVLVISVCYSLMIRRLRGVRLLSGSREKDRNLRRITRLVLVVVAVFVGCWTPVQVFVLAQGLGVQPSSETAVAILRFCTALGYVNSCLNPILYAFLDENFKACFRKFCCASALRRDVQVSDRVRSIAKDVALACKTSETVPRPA
Sequence of D3 (P35462 whole entry): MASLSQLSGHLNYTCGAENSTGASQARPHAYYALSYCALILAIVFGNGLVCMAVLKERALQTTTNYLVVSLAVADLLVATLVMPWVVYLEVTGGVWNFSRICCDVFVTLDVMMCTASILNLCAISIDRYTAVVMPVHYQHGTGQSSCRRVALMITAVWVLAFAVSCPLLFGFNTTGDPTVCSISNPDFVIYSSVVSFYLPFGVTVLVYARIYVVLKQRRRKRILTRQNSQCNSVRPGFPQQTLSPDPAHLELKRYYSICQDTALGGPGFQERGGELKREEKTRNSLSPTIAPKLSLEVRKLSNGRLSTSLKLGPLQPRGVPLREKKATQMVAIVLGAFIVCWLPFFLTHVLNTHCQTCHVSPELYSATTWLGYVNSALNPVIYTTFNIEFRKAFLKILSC
Sequence of 5HT1E (P28566 whole entry): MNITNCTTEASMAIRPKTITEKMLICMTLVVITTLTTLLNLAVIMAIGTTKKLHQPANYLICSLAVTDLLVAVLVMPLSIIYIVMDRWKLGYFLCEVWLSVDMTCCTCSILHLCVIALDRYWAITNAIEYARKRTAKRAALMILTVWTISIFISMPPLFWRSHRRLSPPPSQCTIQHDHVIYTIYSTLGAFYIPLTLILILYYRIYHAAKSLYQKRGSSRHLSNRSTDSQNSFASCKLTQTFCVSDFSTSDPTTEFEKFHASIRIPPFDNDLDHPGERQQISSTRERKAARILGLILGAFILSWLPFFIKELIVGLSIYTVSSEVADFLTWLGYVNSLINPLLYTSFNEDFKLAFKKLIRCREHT

As a reminder, the Ki is a measure of affinity in units of concentration, obtained from inhibition or displacement. Turning to `Cc1cc(-c2ccc(CNC3Cc4ccccc4C3)c(F)c2)cc(-c2ncn[nH]2)c1` [5A], the inhibition constant (Ki) was > 10000 nM on 5HT3; 1420 nM at 5HT1D; > 10000 nM at D2; 6180 nM on H1; 707 nM at 5HT7A; > 10000 nM at 5HT1A. Further, the Ki was > 10000 nM on D5; 181 nM at D3; 560 nM at NOP; 8040 nM on 5HT5A; 303 nM at DAT; 116 nM at SERT. For the same compound, the Ki on 5HT1E is > 10000 nM; at D1, 1270 nM; on D4, 5500 nM; at 5HT2B, 948 nM; on 5HT1B, 3480 nM; on H4, > 10000 nM. Also, the inhibition constant (Ki) on 5HT6 is > 10000 nM; at 5HT2C, > 10000 nM; at 5HT2A, 1020 nM.
